pIC50: −log10 of the molar value.
Target: MMP-13 (Homo sapiens, UniProt P45452)
Assay: Assay for determining MMP-13 inhibition (fluorogenic substrate)
Assay type: biochemical
Conditions: Table 1, Summary of MMP-13 Activity for Compounds of Formula I; bounds only
Protocol: The MMP-13 inhibiting activity of the multicyclic bis-amide MMP-13 inhibiting compounds of the present invention may be measured using any suitable assay known in the art. A standard in vitro assay for MMP-13 inhibiting activity is described in Example 3000.
Assay for Determining MMP-13 Inhibition
The typical assay for MMP-13 activity is carried out in assay buffer comprised of 50 mM Tris, pH 7.5, 150 mM NaCl, 5 mM CaCl2 and 0.05% Brij-35. Different concentrations of tested compounds are prepared in assay buffer in 50 μL aliquots. 10 μL of 40 nM stock solution of MMP-13 enzyme is added to the compound solution. The mixture of enzyme and compound in assay buffer is thoroughly mixed and incubated for 20 minutes at room temperature. Upon the completion of incubation, the assay is started by addition of 40 μL of 12.5 μM stock solution of MMP-13 fluorogenic substrate (Calbiochem Cat. No. 444235). The time-dependent increase in fluorescence is measured at the 325 nm excitation and 393 nm emission by automatic plate multireader. The IC50 values are calculated from the initial reaction rates. Selectivity assays were run in a similar manner using MMP-1, MMP-14 and TACE.

Compound `COc1cccc(CNC(=O)c2cc(C(=O)N[C@H]3CCc4cc(-c5noc(=O)[nH]5)ccc43)ncn2)c1` [Ex. 2407] has a pIC50 greater than 8.30.

`COc1cccc(CNC(=O)c2cc(C(=O)N[C@H]3CCc4cc(-c5nnn[nH]5)ccc43)ncn2)c1` [Ex. 2308] showed a pIC50 of less than 8.30.

With `Cc1cc(CNC(=O)c2cc(C(=O)N[C@H]3CCc4cc(C(=O)O)ccc43)nc(N)n2)ccc1F` [Ex. 2702] the pIC50 was greater than 8.30.

For `COc1cc(CNC(=O)c2cc(C(=O)N[C@H]3CCc4c3ccc(C(=O)O)c4C)ncn2)ccc1F` [Ex. 2562], the pIC50 was greater than 8.30.

Work on `Cc1cc(CNC(=O)c2cc(C(=O)NC3CCc4cc(-c5nnn[nH]5)ccc43)ncn2)ccc1F` (stereo not shown) [Ex. 1] yielded a pIC50 of less than 8.30.

In the case of `Cc1cc(CNC(=O)c2cc(C(=O)N[C@H]3CCc4c3ccc(C(=O)O)c4C)ncn2)ccc1F` [Ex. 2522], the pIC50 was greater than 8.30.

With `Cc1c(-c2nnn[nH]2)ccc2c1CC[C@@H]2NC(=O)c1cc(C(=O)NCc2ccc3c(c2)CN(c2c(N)c(=O)c2=O)CC3)ncn1` [Ex. 2328] the pIC50 was greater than 8.30.

Work on `Cc1c(C(=O)O)ccc2c1CC[C@@H]2NC(=O)c1cc(C(=O)NCc2ccc3c(c2)CN(c2c(N)c(=O)c2=O)CC3)ncn1` [Ex. 2539] yielded a pIC50 greater than 8.30.

`Cc1cc(CNC(=O)c2cc(C(=O)NC3CCCc4cc(-c5nnn[nH]5)ccc43)ncn2)ccc1F` (stereo not shown) [Ex. 2301] was tested, and the pIC50 was less than 8.30.

In the case of `Cc1cc(CNC(=O)c2cc(C(=O)N[C@H]3CCc4cc(-c5nnn[nH]5)ccc43)ncn2)ccc1F` [Ex. 2303], the pIC50 was less than 8.30.
